In USRE39591E1, “6-O-substituted ketolides having antibacterial activity” (Abbott Laboratories, priority 1996, dated 2007):
≈ marks a conversion by molar mass, not a printed value.

System: up to 32 different microorganisms
Assay: in vitro antibacterial activity (MIC), agar dilution on Brain Heart Infusion (BHI) agar with Steers replicator
Type: cell-based
Conditions: unit assumed
In short: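 MIC read visually: lowest drug level with no growth, slight haze or sparsely isolated colonies on the inoculum spot relative to drug-free control. Serial aqueous compound dilutions in BHI agar, 1:100 inoculum (1:10 slow strains), 20 to 24 hours at 35°-37° C.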

| Compound | MIC (organism code AA) [µg/mL] | MIC (organism code BB) [µg/mL] | MIC (organism code CC) [µg/mL] | MIC (organism code DD) [µg/mL] | MIC (organism code EE) [µg/mL] | MIC (organism code FF) [µg/mL] | MIC (organism code GG) [µg/mL] | MIC (organism code HH) [µg/mL] | MIC (organism code II) [µg/mL] | MIC (organism code JJ) [µg/mL] | MIC (organism code KK) [µg/mL] | MIC (organism code MM) [µg/mL] | MIC (organism code NN) [µg/mL] | MIC (organism code OO) [µg/mL] | MIC (organism code PP) [µg/mL] | MIC (organism code QQ) [µg/mL] | MIC (organism code RR) [µg/mL] | MIC (organism code SS) [µg/mL] | MIC (organism code TT) [µg/mL] | MIC (organism code UU) [µg/mL] | further results |
| --- | --- | --- | --- | --- | --- | --- | --- | --- | --- | --- | --- | --- | --- | --- | --- | --- | --- | --- | --- | --- | --- |
| CC[C@H]1OC(=O)[C@H](C)C(=O)[C@H](C)[C@@H](O[C@@H]2O[C@H](C)C[C@H](N(C)C)[C@H]2O)[C@@](C)(OCCNOCc2ccc([N+](=O)[O-])cc2)C[C@@H](C)C(=O)[C@H](C)[C@H]2NC(=O)O[C@@]21C [Example 238, Compound of Formula (IX): L is CO, T is NH, R is —CH2CH2NHOCH2(4-NO2)-phenyl] | 0.2 | 0.2 | > 100 | 0.39 | 0.39 | 0.39 | > 100 | 0.39 | 0.05 | 0.02 | 0.02 | > 100 | 0.2 | 0.05 | 0.2 | 100 | 0.39 | > 100 | > 100 | 0.2 | MIC (organism code LL): 0.02 µg/mL; MIC (organism code VV): 0.1 µg/mL; MIC (organism code WW): 8 µg/mL; MIC (organism code XX): 0.03 µg/mL; MIC (organism code YY): 0.03 µg/mL; MIC (organism code ZZ): > 64 µg/mL; MIC (organism code ZZA): 0.25 µg/mL |
| CC[C@H]1OC(=O)[C@H](C)C(=O)[C@H](C)[C@@H](O[C@@H]2O[C@H](C)C[C@H](N(C)C)[C@H]2O)[C@@](C)(OCC#Cc2ccc3cc(OC)ccc3c2)C[C@@H](C)C(=O)[C@H](C)[C@H]2NC(=O)O[C@@]21C [Example 252, Compound of Formula (IX): L is CO, T is NH, R is —CH2—C≡C-(6-methoxy-2-naphthyl)] | 0.1 | 0.1 | > 100 | 0.1 | 0.1 | 0.1 | > 100 | 0.1 | 0.05 | 0.002 | 0.02 | 3.1 | 0.1 | 0.02 | 0.2 | > 100 | 0.78 | > 100 | > 100 | 0.2 | MIC (organism code LL): 0.05 µg/mL; MIC (organism code VV): 0.05 µg/mL; MIC (organism code WW): 2 µg/mL; MIC (organism code XX): 0.03 µg/mL; MIC (organism code YY): 0.03 µg/mL; MIC (organism code ZZ): 4 µg/mL; MIC (organism code ZZA): 0.25 µg/mL |
| CC[C@H]1OC(=O)[C@H](C)C(=O)[C@H](C)[C@@H](O[C@@H]2O[C@H](C)C[C@H](N(C)C)[C@H]2O)[C@@](C)(OCC=NOCc2ccc([N+](=O)[O-])cc2)C[C@@H](C)C(=O)[C@H](C)[C@H]2NC(=O)O[C@@]21C [Example 230, Compound of Formula (IX): L is CO, T is NH, R is —CH2CH═NOCH2(4-NO2-phenyl)] | 0.1 | 0.1 | > 100 | 0.1 | 0.1 | 0.2 | > 100 | 0.1 | 0.05 | ≤ 0.005 | ≤ 0.005 | > 100 | 0.05 | 0.05 | 0.2 | 100 | 0.39 | > 100 | > 100 | 0.78 | MIC (organism code LL): ≤ 0.005 µg/mL; MIC (organism code VV): 0.05 µg/mL; MIC (organism code WW): 2 µg/mL; MIC (organism code XX): 0.03 µg/mL; MIC (organism code YY): 0.015 µg/mL; MIC (organism code ZZ): 128 µg/mL; MIC (organism code ZZA): 0.25 µg/mL |
| CCC1OC(=O)C(C)C(=O)C(C)C(OC2OC(C)CC(N(C)C)C2O)C(C)(OCC=Cc2cc3nccnc3cc2[N+](=O)[O-])CC(C)C(=O)C(C)C2NC(=O)OC12C (centres unmarked) [Example 200, R is —CH2CH═CH-(7-nitro-6-quinoxalinyl)] | 0.1 (≈ 0.123 µM) | 0.1 (≈ 0.123 µM) | > 100 | 0.1 (≈ 0.123 µM) | 0.1 (≈ 0.123 µM) | 0.1 (≈ 0.123 µM) | > 100 | 0.1 (≈ 0.123 µM) | 0.02 (≈ 0.0246 µM) | 0.01 (≈ 0.0123 µM) | 0.02 (≈ 0.0246 µM) | 50 (≈ 61.6 µM) | 0.2 (≈ 0.246 µM) | 0.01 (≈ 0.0123 µM) | 0.2 (≈ 0.246 µM) | 50 (≈ 61.6 µM) | 0.39 (≈ 0.48 µM) | 12.5 (≈ 15.4 µM) | > 100 | 0.78 (≈ 0.961 µM) | MIC (organism code VV): 0.1 µg/mL (≈ 0.123 µM); MIC (organism code WW): 2 µg/mL (≈ 2.46 µM); MIC (organism code XX): ≤ 0.004 µg/mL; MIC (organism code YY): ≤ 0.004 µg/mL; MIC (organism code ZZ): > 128 µg/mL; MIC (organism code ZZA): 0.25 µg/mL (≈ 0.308 µM) |
